# Read-outs that look alike come from different tables or passages of the source.
# Assays:
# Type in all cases: cell-based
# Proteus rettgeri A15167 = experiment: MIC by serial two-fold agar dilution, P. rettgeri A15167; details: Providencia rettgeri, A15167
# Protocol: (§1) The minimum inhibitory concentrations (MIC) of Bu-2659A, B, C, D and E were determined for a variety of gram-positive and gram-negative bacteria by the serial two-fold agar dilution method using the Steer's multi-inoculating apparatus. The inoculum was standardized as a 10^4 dilution of an overnight culture of the test organisms in Heart Infusion Broth (Difco). […] Reference antibiotics utilized in these tests included commercially available neomycin as well as its components, neomycins B and C [as used herein, the term "neomycin" means the commercial product containing neomycins B and C at an approximate ratio of 7:3], paromomycin [the commercial product containing >90% of paromomycin I and <10% of paromomycin II] and ribostamycin.
# [1] = tested on: Pseudomonas aeruginosa A9930; experiment: MIC by serial two-fold agar dilution, P. aeruginosa A9930; details: Pseudomonas aeruginosa, A9930
# Protocol: as §1
# Proteus vulgaris A9436 = experiment: MIC by serial two-fold agar dilution, P. vulgaris A9436; details: Proteus vulgaris, A9436
# Protocol: as §1
# Micrococcus flavus D12 = experiment: MIC by serial two-fold agar dilution, M. flavus D12; details: Micrococcus flavus, D12
# Protocol: as §1
# Proteus mirabilis A9906 = experiment: MIC by serial two-fold agar dilution, P. mirabilis A9906; details: Proteus mirabilis, A9906
# Protocol: as §1
# [2] = tested on: Bacillus subtilis PCI 219; experiment: MIC by serial two-fold agar dilution, B. subtilis PCI 219; details: Bacillus subtilis, PCI219
# Protocol: as §1
# Escherichia coli Juhl = experiment: MIC by serial two-fold agar dilution, E. coli Juhl; details: Escherichia coli
# Protocol: as §1
# Proteus mirabilis A9554 = experiment: MIC by serial two-fold agar dilution, P. mirabilis A9554; details: Proteus mirabilis, A9554
# Protocol: as §1
# [3] = tested on: Pseudomonas aeruginosa D15; experiment: MIC by serial two-fold agar dilution, P. aeruginosa D15; details: Pseudomonas aeruginosa, D15
# Protocol: as §1
# [4] = tested on: Klebsiella pneumoniae D11; experiment: MIC by serial two-fold agar dilution, K. pneumoniae D11; details: Klebsiella pneumoniae, D11
# Protocol: as §1
# [5] = tested on: Staphylococcus aureus D136; experiment: MIC by serial two-fold agar dilution, S. aureus D136; details: Staphylococcus aureus, D136
# Protocol: as §1
# [6] = tested on: Staphylococcus aureus Smith; experiment: MIC by serial two-fold agar dilution, S. aureus Smith; details: Staphylococcus aureus
# Protocol: as §1
# [7] = tested on: Micrococcus luteus PCI 1001; experiment: MIC by serial two-fold agar dilution, M. luteus PCI 1001; details: Micrococcus luteus, PCI1001
# Protocol: as §1
# [8] = tested on: Staphylococcus aureus 209P; experiment: MIC by serial two-fold agar dilution, S. aureus 209P; details: Staphylococcus aureus, 209P
# Protocol: as §1
# Escherichia coli NIHJ = experiment: MIC by serial two-fold agar dilution, E. coli NIHJ; details: Escherichia coli
# Protocol: as §1
# [9] = tested on: gram-positive and gram-negative bacteria; experiment: In vitro antibacterial spectra (MIC), overall comparison, Table 7; details: Table 7 organisms; for activity relative to Bu-2659A: as active as Bu-2659A
# Protocol: as §1
# Proteus morganii A9553 = experiment: MIC by serial two-fold agar dilution, P. morganii A9553; details: Morganella morganii, A9553
# Protocol: as §1
# [10] = tested on: Serratia marcescens A20019; experiment: MIC by serial two-fold agar dilution, S. marcescens A20019; details: Serratia marcescens, A20019
# Protocol: as §1
# Escherichia coli JR88 = experiment: MIC, aminoglycoside-resistant E. coli JR88; details: Escherichia coli, JR88
# Protocol: as §1
# [11] = Table 7, Mueller-Hinton agar, read-out: MIC
compound,measurement,setting,value
"NC[C@@H]1O[C@H](O[C@H]2[C@@H](O)[C@H](O[C@@H]3[C@@H](O)[C@H](O)C[C@H](N)[C@H]3O[C@H]3O[C@H](CO)[C@@H](O)[C@H](O)[C@H]3N)O[C@@H]2CO)[C@H](N)[C@@H](O)[C@@H]1O [Bu-2659C, 1-deamino-1-hydroxyparomomycin I]",MIC,Proteus rettgeri A15167; [11],3.1 µg/mL
same,MIC,[1]; [11],12.5 µg/mL
same,MIC,Proteus vulgaris A9436; [11],1.6 µg/mL
same,MIC,Micrococcus flavus D12; [11],> 100 µg/mL
same,MIC,Proteus mirabilis A9906; [11],3.1 µg/mL
same,MIC,[2]; [11],0.8 µg/mL
same,MIC,Escherichia coli Juhl; [11],25 µg/mL
same,MIC,Proteus mirabilis A9554; [11],3.1 µg/mL
same,MIC,[3]; [11],25 µg/mL
same,MIC,[4]; [11],1.6 µg/mL
same,MIC,[5]; [11],6.3 µg/mL
same,MIC,[6]; [11],6.3 µg/mL
same,MIC,[7]; [11],> 100 µg/mL
same,MIC,[8]; [11],3.1 µg/mL
same,MIC,Escherichia coli NIHJ; [11],6.3 µg/mL
same,activity relative to Bu-2659A,[9],approximately 1/4
same,MIC,Proteus morganii A9553; [11],6.3 µg/mL
same,MIC,[10]; [11],6.3 µg/mL
"NC[C@H]1O[C@H](O[C@H]2[C@H](O[C@@H]3O[C@H](CO)[C@@H](O[C@H]4O[C@H](CN)[C@@H](O)[C@H](O)[C@H]4N)[C@H]3O)[C@@H](O)[C@H](N)C[C@@H]2N)[C@H](N)[C@@H](O)[C@@H]1O [Neomycin C, neomycin C]",MIC,Proteus rettgeri A15167,1.6 µg/mL
same,MIC,[1],50 µg/mL
same,MIC,Proteus vulgaris A9436,1.6 µg/mL
same,MIC,Micrococcus flavus D12,100 µg/mL
same,MIC,Proteus mirabilis A9906,1.6 µg/mL
same,MIC,[2],< 0.05 µg/mL
same,MIC,Escherichia coli Juhl,12.5 µg/mL
same,MIC,Proteus mirabilis A9554,3.1 µg/mL
same,MIC,[3],> 100 µg/mL
same,MIC,[4],0.4 µg/mL
same,MIC,[5],1.6 µg/mL
same,MIC,[6],1.6 µg/mL
same,MIC,[7],50 µg/mL
same,MIC,[8],0.8 µg/mL
same,MIC,Escherichia coli NIHJ,3.1 µg/mL
same,MIC,Proteus morganii A9553,3.1 µg/mL
same,MIC,[10],6.3 µg/mL
"NC[C@H]1O[C@H](O[C@H]2[C@H](O)[C@@H](O)[C@H](N)C[C@@H]2N)[C@H](N)[C@@H](O)[C@@H]1O [Neamine, neamine]",MIC,[1],400 µg/mL
same,MIC,Proteus vulgaris A9436,6.3 µg/mL
same,MIC,[2],3.1 µg/mL
same,MIC,Escherichia coli JR88,12.5 µg/mL
same,MIC,Proteus mirabilis A9554,25 µg/mL
same,MIC,[4],12.5 µg/mL
same,MIC,[6],3.1 µg/mL
same,MIC,[8],6.3 µg/mL
same,MIC,Escherichia coli NIHJ,12.5 µg/mL
"NC[C@@H]1O[C@H](O[C@H]2[C@@H](O)[C@H](O[C@@H]3[C@@H](O)[C@H](N)C[C@H](N)[C@H]3O[C@H]3O[C@H](CN)[C@@H](O)[C@H](O)[C@H]3N)O[C@@H]2CO)[C@H](N)[C@@H](O)[C@@H]1O [Neomycin B, neomycin B]",MIC,Proteus rettgeri A15167,1.6 µg/mL
same,MIC,[1],3.1 µg/mL
same,MIC,Proteus vulgaris A9436,0.8 µg/mL
same,MIC,Micrococcus flavus D12,1.6 µg/mL
same,MIC,Proteus mirabilis A9906,0.8 µg/mL
same,MIC,[2],< 0.05 µg/mL
same,MIC,Escherichia coli Juhl,3.1 µg/mL
same,MIC,Proteus mirabilis A9554,0.8 µg/mL
same,MIC,[3],3.1 µg/mL
same,MIC,[4],0.2 µg/mL
same,MIC,[5],0.4 µg/mL
same,MIC,[6],0.4 µg/mL
same,MIC,[7],0.8 µg/mL
same,MIC,[8],0.4 µg/mL
same,MIC,Escherichia coli NIHJ,1.6 µg/mL
same,MIC,Proteus morganii A9553,3.1 µg/mL
same,MIC,[10],1.6 µg/mL
"NC[C@H]1O[C@H](O[C@H]2[C@H](O[C@@H]3O[C@H](CO)[C@@H](O[C@H]4O[C@@H](CO)[C@@H](O)[C@H](O)[C@H]4N)[C@H]3O)[C@@H](O)[C@H](O)C[C@@H]2N)[C@H](N)[C@@H](O)[C@@H]1O [Bu-2659D, 1,6'""-dideamino-1,6'""-dihydroxyneomycin B]",MIC,Proteus rettgeri A15167; [11],3.1 µg/mL
same,MIC,[1]; [11],50 µg/mL
same,MIC,Proteus vulgaris A9436; [11],3.1 µg/mL
same,MIC,Micrococcus flavus D12; [11],100 µg/mL
same,MIC,Proteus mirabilis A9906; [11],6.3 µg/mL
same,MIC,[2]; [11],1.6 µg/mL
same,MIC,Escherichia coli Juhl; [11],50 µg/mL
same,MIC,Proteus mirabilis A9554; [11],6.3 µg/mL
same,MIC,[3]; [11],> 100 µg/mL
same,MIC,[4]; [11],1.6 µg/mL
same,MIC,[5]; [11],25 µg/mL
same,MIC,[6]; [11],25 µg/mL
same,MIC,[7]; [11],100 µg/mL
same,MIC,[8]; [11],6.3 µg/mL
same,MIC,Escherichia coli NIHJ; [11],12.5 µg/mL
same,"in vitro antibacterial activity, in words",[9],less active than components B and C
same,MIC,Proteus morganii A9553; [11],12.5 µg/mL
same,MIC,[10]; [11],100 µg/mL
"NC[C@H]1O[C@H](O[C@H]2[C@H](O[C@@H]3O[C@H](CO)[C@@H](O)[C@H]3O)[C@@H](O)[C@H](O)C[C@@H]2N)[C@H](N)[C@@H](O)[C@@H]1O [Bu-2659E, 1-deamino-1-hydroxyribostamycin]",MIC,Proteus rettgeri A15167; [11],12.5 µg/mL
same,MIC,[1]; [11],> 100 µg/mL
same,MIC,Proteus vulgaris A9436; [11],12.5 µg/mL
same,MIC,Micrococcus flavus D12; [11],> 100 µg/mL
same,MIC,Proteus mirabilis A9906; [11],25 µg/mL
same,MIC,[2]; [11],3.1 µg/mL
same,MIC,Escherichia coli Juhl; [11],> 100 µg/mL
same,MIC,Proteus mirabilis A9554; [11],12.5 µg/mL
same,MIC,[3]; [11],> 100 µg/mL
same,MIC,[4]; [11],12.5 µg/mL
same,MIC,[5]; [11],50 µg/mL
same,MIC,[6]; [11],50 µg/mL
same,MIC,[7]; [11],> 100 µg/mL
same,MIC,[8]; [11],25 µg/mL
same,MIC,Escherichia coli NIHJ; [11],50 µg/mL
same,"in vitro antibacterial activity, in words",[9],less active than components B and C
same,MIC,Proteus morganii A9553; [11],25 µg/mL
same,MIC,[10]; [11],> 100 µg/mL
"NC[C@H]1O[C@H](O[C@H]2[C@H](O[C@@H]3O[C@H](CO)[C@@H](O[C@H]4O[C@H](CN)[C@@H](O)[C@H](O)[C@H]4N)[C@H]3O)[C@@H](O)[C@H](O)C[C@@H]2N)[C@H](N)[C@@H](O)[C@@H]1O [Bu-2659B, 1-deamino-1-hydroxyneomycin C]",MIC,Proteus rettgeri A15167; [11],3.1 µg/mL
same,MIC,[1]; [11],> 100 µg/mL
same,MIC,Proteus vulgaris A9436; [11],3.1 µg/mL
same,MIC,Micrococcus flavus D12; [11],> 100 µg/mL
same,MIC,Proteus mirabilis A9906; [11],6.3 µg/mL
same,MIC,[2]; [11],0.4 µg/mL
same,MIC,Escherichia coli Juhl; [11],50 µg/mL
same,MIC,Proteus mirabilis A9554; [11],6.3 µg/mL
same,MIC,[3]; [11],> 100 µg/mL
same,MIC,[4]; [11],1.6 µg/mL
same,MIC,[5]; [11],6.3 µg/mL
same,MIC,[6]; [11],3.1 µg/mL
same,MIC,[7]; [11],> 100 µg/mL
same,MIC,[8]; [11],3.1 µg/mL
same,MIC,Escherichia coli NIHJ; [11],12.5 µg/mL
same,activity relative to Bu-2659A,[9],approximately 1/4
same,MIC,Proteus morganii A9553; [11],12.5 µg/mL
same,MIC,[10]; [11],100 µg/mL

# From patent US4504580A, “Antibiotics produced by fermentation of a novel strain of Streptomyces hygroscopicus” (Bristol-Myers Company, priority 1983, dated 1985)
